Results on 2 compounds are retold here after patent US20220160703A1, “TUMOR-SELECTIVE COMBINATION THERAPY” (The Board of Regents of The University of Texas System, priority 2019, published 2022).

Series [1] concerns NQO1 positive tumor cell lines MC38, TC-1 and Ag104Ld. In kind it is cell-based. The settings on record: MC38 and B16 NQO1 cells, β-lap 3 hr, catalase 1000 U/ml, survival 48 hr later. As to the method:
(FIG. 1A) NQO1 positive tumor cell lines MC38, TC-1 and Ag104Ld and NQO1 negative cell lines Panc02 and B16 grown in 48-well plates were treated with β-lap (0-8 μM) for a 3 hr followed by washing and replacing medium. Cell viability was determined by Sulforhodamine B (SRB) Assay 4 days later. […] (FIG. 1C) MC38 cells with CRISPR-based NQO1 Knockout (MC38 NQO1KO #5) planted in 96-well plates were exposed to β-lap for 3 hr and cell survival was assessed 48 hr later. […] (FIG. 1E) MC38 cells were exposed to a lethal dose of β-lap (4 μM) for indicated times, then stained with 7-AAD and Annexin V followed by flow cytometry analysis. […] (FIG. 1H) MC38 and B16 NQO1 #1 cells were exposed to β-lap for a 3 hr. Catalase (1000 U/ml) was added and cell survival was assessed 48 hr later. (FIG. 1I) C57BL/6 mice (n=5/group) were transplanted with MC38 cells and treated with β-lap (0.03 mg, 0.1 mg or 0.3 mg, intratumorally; or 25 mg/kg, i.v.) every other day for four times. […] Tumor growth was monitored twice a week.
(FIG. 8A) NQO1 expression in multiple murine tumor lines was immunoblotted as indicated. […] Drugs were removed and survival assessed 5 days later. (FIG. 8C) Relative H2O2 levels were assessed in various cells treated with β-lap for 3 h at the indicated doses using CellRox-Glo. […] (FIG. 8D) TC-1 cells exposure to β-lap for 12 h, later PARP-1 and Caspase-3 levels were analyzed by western blotting assay. […]
(FIGS. 14A-C) NQO1 cells MC38 (A) and TC-1 (B) and NQO1^− cells B16 (C) were treated for 2 h with various doses of IB-DNQ±DIC (50 μM). Drugs were removed and survival assessed 6 days later. […] (FIGS. 14E-F) Relative NAD^+ (E) or ATP (F) levels were assessed in TC-1 cells exposed to various doses of IB-DNQ for 2 h. […] Comet tail lengths in a.u. were monitored at indicated time; and DSBs quantified by γH2AX foci/nuclei using immunofluorescence at indicated time (FIG. 14H). […]
(FIG. 21A) Viability of murine cell lines following IB-DNQ treatment for 4 h. […] (FIGS. 21D-E) DNA double strand break was assessed via comet assay (FIG. 21D) and γH2AX foci/nuclei immunofluorescence (FIG. 21E). […]

Series [2] in a line: Aqueous solubility of DNQ in PBS by LC-MS. The settings on record: pH 7.4 phosphate buffered saline, 30 min sonication, filtered. In kind it is physicochemical. As to the method: The aqueous solubility of DNQ at pH 7.4 in phosphate buffered saline (PBS) was measured by LC-MS. DNQ was sonicated for 30 minutes in PBS then undissolved solid was removed by filtration through a 0.45 μm syringe filter and the filtrate was analyzed by LC-MS (λ=275 nm, ESI-TOF in negative mode). The optimal sonication time was determined by sonicating DNQ for 1, 5, 10, and 30 minutes. While the concentration of DNQ in solution increased substantially between 1, 5, and 10 minutes, there was only a minor difference between 10 and 30 minutes. During the 30-minute sonication the water bath warmed to 45° C. (samples were cooled to room temperature before filtration). A calibration curve was generated from 1-100 μM by dissolving DNQ in methanol to a concentration of 500 μM and making dilutions of this stock in 80:20 water:methanol. The calibration curve (measure by UV absorbance) was linear over this range; 1 μM was approximately the limit of detection. […] The solution was very pale yellow.

Series [3] in a line: Formulation of DNQ compounds in HPβCD. In kind it is physicochemical. From the text:
This same neutral solution of DNQ in HPβCD cannot be made directly (i.e. without pH adjustment). […] The only proton on DNQ that might reasonably be deprotonated in aqueous base is the N—H. […] The protocol for formulating DNQ compounds in HPβCD is as follows: the DNQ compound is slurried in a 20% solution of HPβCD in pH 7.4 PBS and the pH is then increased by the addition of 10 M NaOH to induce dissolution of the DNQ compound. The pH is returned to pH 7.5-8.0 by the careful addition of 1 M HCl. A 3.3 mM solution of the DNQ compound can be made by this method which is stable at least 24 hours. This represents a 30-fold increase in solubility of DNQ over PBS alone. The inventors initially chose a 20% HPβCD solution.

The target in another series is NQO1 (Homo sapiens, UniProt P15559). Description: NQO1-catalyzed futile redox cycle / processing in vitro. Type of series: biochemical. The settings on record: compared with β-lap.
Sequence of NQO1 (P15559 whole entry, species assumed): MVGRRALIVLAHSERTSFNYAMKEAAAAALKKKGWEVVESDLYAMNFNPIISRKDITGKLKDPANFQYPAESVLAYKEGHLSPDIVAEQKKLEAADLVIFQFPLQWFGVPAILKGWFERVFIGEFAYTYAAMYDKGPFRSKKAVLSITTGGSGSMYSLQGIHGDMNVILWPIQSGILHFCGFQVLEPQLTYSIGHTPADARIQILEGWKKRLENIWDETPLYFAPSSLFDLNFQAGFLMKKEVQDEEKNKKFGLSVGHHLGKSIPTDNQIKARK

Consider Catalase, for which the “effect of H2O2 scavenging on β-lap lethality” value in series [1] is “significantly spared β-lap-mediated lethality”.
As to `Cc1cc(=O)[nH]c2c1C(=O)c1c(C)cc(=O)n(C)c1C2=O` [DNQ, Deoxynyboquinone], the “solubility of DNQ in PBS” value in series [2] turned out to be 115 µM. For the same compound, the “stability of the HPβCD solution” value in series [3] (3.3 mM solution in 20% HPβCD) is “at least 24 hours”. Also, the “increase in solubility over PBS alone” value in series [3] (20% HPβCD) came to 30 fold. For the same compound, in series [3] (20% HPβCD in pH 7.4 PBS, pH raised with NaOH then returned to pH 7.5-8.0), the “concentration of solution that can be made in HPβCD” value came out at 3300 µM. Besides, in series [3] (40% HPβCD, concentration increases linearly with HPβCD), the “concentration of solution permitted by 40% HPβCD” value came to 6600 µM. At NQO1, the “efficiency of processing by NQO1 in vitro” value is reported as “much more efficiently than β-lap”.
